Results published in PMC5974403, “The novel histone de acetylase 6 inhibitor, MPT0G211, ameliorates tau phosphorylation and cognitive deficits in an Alzheimer’s disease model” (Cell Death & Disease, 2018).
Peptide text beside a SMILES is read from it. * marks the point of attachment. Cbz = O=C(OCc1ccccc1)*

What was measured:
Neuro-2a cells [1] = experiment: Western blot of acetyl-α-tubulin and acetyl-histone, Neuro-2a cells; type: cell-based, mouse; conditions: 0.1 to 1 μM, 24 h
Procedure: (§1) Cell viabilities were determined by MTT assay. The results represent the mean ± SEM of three independent experiments; *p < 0.05, **p < 0.01 and ***p < 0.001 compared with controls TEXT PRINTED IN THE PICTURE: (A) no label printed: M.W. 293.32
(§2) Cells (1 × 10^6) were incubated for 10 min at 4 °C in lysis buffer (20 mM HEPES, pH 7.4, 2 mM EGTA, 50 mM β-glycerophosphate, 0.1% Triton X-100, 10% glycerol, 1 mM dithiothreitol, 1 μg/mL leupeptin, 5 μg/mL aprotinin, 1 mM phenylmethylsulfonyl fluoride, and 1 mM sodium orthovanadate), scraped from the plate, incubated on ice for 10 min, and centrifuged at 17,000 × g for 30 min at 4 °C. Protein samples (30 μg) were electrophoresed through sodium dodecyl sulfate-polyacrylamide gels (SDS-PAGE) and transferred onto a nitrocellulose membrane, which was then blocked by incubation for 30 min at room temperature with 5% fat-free milk in PBS. Immunoblotting was performed by overnight incubation at 4 °C with primary antibodies in PBS, followed by incubation for 1 h at room temperature with HRP-conjugated secondary antibodies. Bound antibodies were measured using ECL reagent (T-Pro Biotechnology, New Taipei City, Taiwan), and the membrane was placed on a photographic film. Cell lysates (30 μg) were incubated with antibodies (1 μg each) and protein A/G agarose beads overnight at 4 °C. The precipitated beads were washed three times with 1 mL of ice-cold cell lysis buffer, and bound immune complexes were separated using 8% SDS-PAGE, followed by immunoblotting using the indicated primary antibody.

SH-SY5Y cells [2] = experiment: Western blot of acetyl-α-tubulin and acetyl-histone, SH-SY5Y cells; type: cell-based, human; conditions: 0.1 to 1 μM, 24 h
Procedure: as §1, §2

SH-SY5Y cells [3] = experiment: Flow cytometry of sub-G1 (PI) and annexin V/PI in transfected SH-SY5Y cells; type: cell-based, human; conditions: hAPP + hTauP301L transfected SH-SY5Y, 0.1 μM, 24 h
Procedure: The fractionation scheme used to separate different cellular pools of tau, and the western blot analysis of the effects of the compounds on tau pools generated using the fractionation scheme are presented. b, d SH-SY5Y cells were transfected for 24 h with pCAX APP 695 and pRK5-EGFP-Tau P301L, incubated with or without MPT0G211 or ACY-1215 (0.1 μM) for another 24 h, and then the cells were fixed and stained by propidium iodide (b) or annexin V/PI double staining (d) and analyzed by flow cytometry. c, e Percentages of the subG1 phase (c) or annexin V-positive cells (e) in response to drug treatment as explained in (b). Results are presented as the mean ± SEM. *p < 0.05 and **p < 0.01 compared with the control group; ^#p < 0.05 and ^##p < 0.01 compared with the indicated groups TEXT PRINTED IN THE PICTURE: (B) MPT0G211: hAPP + hTauP301L: SubG1 10.91% | (B) ACY-1215: hAPP + hTauP301L: SubG1 15.40% | (D) MPT0G211: hAPP + hTauP301L: 9.56%; hAPP + hTauP301L: 11.26% | (D) ACY-1215: hAPP + hTauP301L: 9.28%; hAPP + hTauP301L: 11.25%
After drug treatment, the cells were collected, washed with cold phosphate-buffered saline (PBS), and fixed with 75% alcohol overnight at −20 °C. After centrifugation, the fixed cells were washed with cold PBS and resuspended in DNA extraction buffer (0.2 M Na2HPO4, 0.1 M citric acid, pH 7.8) for 30 min. The cells were centrifuged and incubated with propidium iodide (PI) (0.1% Triton X-100, 100 μg/mL RNase A, and 80 μg/mL PI in PBS) for 30 min. The cell cycle was analyzed using a FACScan Flow cytometer and Cell Quest software (Becton Dickinson, Mountain View, CA, USA).

SH-SY5Y cells [4] = experiment: Western blot of tau phosphorylation and kinases in SH-SY5Y cells transfected with pCAX APP 695 and pRK5-EGFP-Tau P301L; type: cell-based, human; conditions: SH-SY5Y transfected, MG132 1 μM 30 min before MPT0G211 0.1 μM 24 h
Procedure: (§3) Images represented magnification at ×100. b Cells were transfected with pCAX APP 695 for 24 h, harvested, and cell lysates were subjected to Western blotting. c, d SH-SY5Y and Neuro-2a cells were transfected with pCAX APP 695 and/or pRK5-EGFP-Tau P301L for 24 h. Cell lysates were prepared for western blot analysis of the indicated proteins. e, f Cells were transfected with pCAX APP 695 and pRK5-EGFP-Tau P301L for 24 h and were then incubated with or without MPT0G211 or ACY-1215 (0.1 μM) for another 24 h. Cell lysates were subjected to western blot analysis using the indicated antibodies. Results are presented as the mean ± SEM from three independent experiments. **p < 0.01, ***p < 0.001 compared with the control group; ^#p < 0.05, ^##p < 0.01 compared with the indicated groups
(§4) Cell lysates were prepared for western blot analysis of the indicated proteins. Results are presented as the mean ± SEM. *p < 0.05, **p < 0.01, and ***p < 0.001 compared with the control group; ^#p < 0.05, ^##p < 0.01, ^###p < 0.001 compared with the indicated groups
(§5) Cells were seeded 1 day before transfection. The plasmids pCAX FLAG APP and pRK5-EGFP-Tau P301L (1 μg each) and 1 μL of TurboFect transfection reagent were mixed for 20 min at room temperature, added to the cells, and the suspensions were incubated for 24 h at 37 °C in a humidified atmosphere containing 5% CO2.
as §2

Neuro-2a cells [5] = experiment: Western blot of tau phosphorylation and kinases in Neuro-2a cells transfected with pCAX APP 695 and pRK5-EGFP-Tau P301L; type: cell-based, mouse; conditions: Neuro-2a transfected, MG132 1 μM 30 min before MPT0G211 0.1 μM 24 h
Procedure: as §3, §4, §5, §2

[6] = Fig. 3d picture, quadrant not identified

Compound | acetylation of α-tubulin (Neuro-2a cells [1]) | acetylation of α-tubulin (SH-SY5Y cells [2]) | SubG1 population (SH-SY5Y cells [3]; PI staining, Fig. 3b picture) [%] | annexin V/PI double staining, quadrant percentage (SH-SY5Y cells [3]; [6]) [%] | annexin V/PI double staining, quadrant percentage (first value) (SH-SY5Y cells [3]; [6]) [%] | acetylation of histones (Neuro-2a cells [1]) | acetylation of histones (SH-SY5Y cells [2]) | effect on MPT0G211-induced inhibition of p-tau at Ser396 (SH-SY5Y cells [4]) | effect on MPT0G211-induced inhibition of p-tau at Ser396 (Neuro-2a cells [5])
O=C(CCCCCCNC(=O)c1cnc(N(c2ccccc2)c2ccccc2)nc1)NO [ACY-1215, reference compound] | less acetylation of α-tubulin | less acetylation of α-tubulin | 15.40 | 11.25 | 9.28 | – | – | – | –
O=C(CCCCCCC(=O)Nc1ccccc1)NO [SAHA] | significantly increased | significantly increased | – | – | – | significantly increased | significantly increased | – | –
CC(C)C[C@@H](C=O)NC(=O)[C@H](CC(C)C)NC(=O)[C@H](CC(C)C)NC(=O)OCc1ccccc1 [MG132, reference compound] (Cbz-Leu-Leu-Leu-aldehyde) | – | – | – | – | – | – | – | significantly reversed | significantly reversed
